By pIC50 is commonly meant −log10 of the IC50, conventionally taken in molar units.

For five compounds, IC50 results are on record in ChEMBL document CHEMBL5729370 (2022).

In this assay the target is T1, Mitogen-activated protein kinase kinase kinase 5 (Homo sapiens, UniProt Q99683).
T1 sequence (Q99683 whole entry): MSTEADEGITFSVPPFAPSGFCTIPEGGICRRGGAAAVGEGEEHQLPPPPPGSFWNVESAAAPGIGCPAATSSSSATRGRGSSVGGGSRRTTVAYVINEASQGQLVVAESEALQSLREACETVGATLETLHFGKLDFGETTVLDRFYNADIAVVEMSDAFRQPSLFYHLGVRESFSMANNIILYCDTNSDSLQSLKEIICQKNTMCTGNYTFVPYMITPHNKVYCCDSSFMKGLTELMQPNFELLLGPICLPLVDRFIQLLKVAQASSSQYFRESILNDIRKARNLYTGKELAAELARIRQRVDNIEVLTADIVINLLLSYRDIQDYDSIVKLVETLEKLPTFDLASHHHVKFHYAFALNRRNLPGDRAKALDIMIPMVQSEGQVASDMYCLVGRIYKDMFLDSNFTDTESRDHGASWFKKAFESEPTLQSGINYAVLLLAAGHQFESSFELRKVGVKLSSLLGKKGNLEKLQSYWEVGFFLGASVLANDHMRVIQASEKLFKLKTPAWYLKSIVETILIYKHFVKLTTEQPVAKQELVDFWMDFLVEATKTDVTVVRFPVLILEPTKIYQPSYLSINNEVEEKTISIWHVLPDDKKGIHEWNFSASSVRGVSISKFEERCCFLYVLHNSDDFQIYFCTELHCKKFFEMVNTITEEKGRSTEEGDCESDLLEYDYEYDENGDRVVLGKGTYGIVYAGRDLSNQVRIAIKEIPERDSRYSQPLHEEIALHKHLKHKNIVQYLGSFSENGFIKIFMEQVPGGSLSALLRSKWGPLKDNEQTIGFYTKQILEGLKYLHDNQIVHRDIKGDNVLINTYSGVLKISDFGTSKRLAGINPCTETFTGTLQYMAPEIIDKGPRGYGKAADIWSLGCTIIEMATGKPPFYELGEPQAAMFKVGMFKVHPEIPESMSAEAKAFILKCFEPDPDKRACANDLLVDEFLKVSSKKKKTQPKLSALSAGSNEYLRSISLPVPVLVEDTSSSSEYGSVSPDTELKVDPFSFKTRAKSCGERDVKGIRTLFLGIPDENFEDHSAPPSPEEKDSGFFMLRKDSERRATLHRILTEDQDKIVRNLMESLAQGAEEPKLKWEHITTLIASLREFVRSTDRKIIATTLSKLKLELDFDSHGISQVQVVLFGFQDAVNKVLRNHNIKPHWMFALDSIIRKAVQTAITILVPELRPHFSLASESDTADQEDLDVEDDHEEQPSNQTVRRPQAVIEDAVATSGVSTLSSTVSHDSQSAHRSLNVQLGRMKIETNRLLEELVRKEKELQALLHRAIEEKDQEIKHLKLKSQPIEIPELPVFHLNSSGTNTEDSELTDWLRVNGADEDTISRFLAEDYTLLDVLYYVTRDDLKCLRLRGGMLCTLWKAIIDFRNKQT
In words: HTRF KinEASE Assay: ASK1 was purchased from Thermofisher (Catalogue #PV4011), ATP was purchased from Sigma (Catalogue #A7699), HTRF® KinEASE™ Assay System was obtained from Cisbio (Bedford, Mass.). ½ Area plate was purchased from Perkin Elmer (Catalogue ##6005560). HTRF® KinEASE™-STK is a generic method for measuring serine/threonine kinase activities using a time-resolved fluorescence resonance energy transfer (TR-FRET) immunoassay. The IC50 value for each compound was determined in the presence of compound (various concentration from 0 to 10 μM) and a fixed amount of ATP and peptide substrates. The test compound, 1 μM STK3 peptide substrate, and 5 μM of ASK1 kinase are incubated with kinase reaction buffer containing 50 mM HEPES Ph 7.5, 0.01% BRIJ-35, 10 mM MgCl2, and 1 mM EGTA for 30 minutes. 100 μM ATP is added to start kinase reaction and incubated for 3 hours. The STK3-antibody labeled with Eu3+-Cryptate and 125 nM streptavidin-XL665 are mixed in a single addition with stop reagents provided by the Cisbio kit used to stop the kinase reaction. Fluorescence is detected using an Envision Multilabeled 2014 reader from PerkinElmer. The Fluorescence is measured at 615 nm (Cryptate) and 665 nm (XL665) and a ratio of 665 nm/615 nm is calculated for each well. The resulting TR-FRET is proportional to the phosphorylation level. Staurosporine was used as the positive control. IC50 was determined by Xlfit 5.3. Type of assay: single protein.

Structures are written as SMILES. pIC50: −log10 of the molar value.

In the case of `CCOC(=O)N1CCc2cc(OC)c(C(=O)Nc3cccc(-c4nnc5n4[C@H](C)CC5)n3)cc2C1`, the pIC50 is > 8.90.
The value for `CCOC(=O)N1CCc2cc(OC)c(C(=O)Nc3cccc(-c4nnc5n4CCCC5)n3)cc2C1` was 7.00 to 8.00; that for `CCOC(=O)N1CCc2cnc(C(=O)Nc3cccc(-c4nnc5n4CCCC5)n3)cc2C1` was < 6.00; that for `CCOC(=O)N1CCc2cc(F)c(C(=O)Nc3cccc(-c4nnc5n4CCCC5)n3)cc2C1` was < 6.00.
To `CCOC(=O)N1CCc2cc(OC)c(C(=O)Nc3cccc(-c4nnc5n4C(C)(C)CC5)n3)cc2C1` belongs > 8.90.
